# Results reported in the supplement of paper PMC10307832.
# Experiments:
# Assay in all cases: relative viability (nuclei count vs DMSO), 5 days (fraction); higher = more cells survive
# [1] = compound: C1=CC=C(C(=C1)C2=CC=C(C=C2)C3=CSC4=C3C(=C(C(=O)N4)C#N)O)O + Nc1nc2[nH]cc(CCc3ccc(C(=O)N[C@@H](CCC(=O)O)C(=O)O)cc3)c2c(=O)[nH]1 [Pemetrexed] (partner 0.2 µM)
# Outline: (§1)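 Relative viability was taken as the ratio of nuclei in treated wells to nuclei in vehicle wells. Lung cancer cell lines in 1536-well plates received compounds by pin tool one day after seeding, either one drug alone or a fixed anchor-drug dose plus five library-drug doses (not always all listed) in √10 steps. Nuclei were counted on 4× images after 5 days of treatment, and values are medians of duplicate plates.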
# [2] = compound: O=C(CCCCCCNC(=O)c1cnc(N(c2ccccc2)c2ccccc2)nc1)NO [Ricolinostat] + CC(=O)Nc1cccc(-n2c(=O)n(C3CC3)c(=O)c3c(Nc4ccc(I)cc4F)n(C)c(=O)c(C)c32)c1 [Trametinib] (partner 0.02 µM)
# Outline: as §1
# [3] = compound: C1=CC=C(C(=C1)C2=CC=C(C=C2)C3=CSC4=C3C(=C(C(=O)N4)C#N)O)O + Nc1ncn([C@H]2C[C@H](O)[C@@H](CO)O2)c(=O)n1 [Decitabine] (partner 2 µM)
# Outline: as §1
# [4] = compound: C1=CC=C(C(=C1)C2=CC=C(C=C2)C3=CSC4=C3C(=C(C(=O)N4)C#N)O)O + NC(=O)Nc1cc(-c2cccc(F)c2)sc1C(=O)N[C@H]1CCCNC1 [AZD7762] (partner 0.2 µM)
# Outline: as §1
Cell Line,relative viability ([1]; first compound 0.08 µM),relative viability ([1]; first compound 0.253 µM),relative viability ([1]; first compound 0.8 µM),relative viability ([1]; first compound 2.53 µM),relative viability ([1]; first compound 8 µM),relative viability ([2]; first compound 0.08 µM),relative viability ([2]; first compound 0.253 µM),relative viability ([2]; first compound 0.8 µM),relative viability ([2]; first compound 2.53 µM),relative viability ([3]; first compound 0.08 µM),relative viability ([3]; first compound 0.253 µM),relative viability ([3]; first compound 0.8 µM),relative viability ([3]; first compound 2.53 µM),relative viability ([3]; first compound 8 µM),relative viability ([4]; first compound 0.08 µM),relative viability ([4]; first compound 0.253 µM),relative viability ([4]; first compound 0.8 µM),relative viability ([4]; first compound 2.53 µM),relative viability ([4]; first compound 8 µM)
HARA,0.241,0.274,0.219,0.197,0.264,0.704,0.804,0.529,0.644,0.592,0.769,0.596,0.548,0.459,0.286,0.361,0.345,0.284,0.304
ChaGo-K-1,0.271,0.257,0.256,0.251,0.256,0.894,0.865,0.848,0.802,0.507,0.58,0.587,0.535,0.506,0.834,0.936,0.904,0.92,0.838
HCC-366,,0.172,0.168,0.176,0.165,0.372,0.32,0.314,0.342,,0.46,0.343,0.332,0.358,,0.342,0.259,0.281,0.273
SW 900,,0.487,0.453,0.464,0.47,0.659,0.905,0.954,0.609,,0.452,0.467,0.459,0.446,,0.625,0.607,0.692,0.563
HCC-827,0.283,0.25,0.244,0.305,0.282,0.49,0.527,0.581,0.584,0.318,0.361,0.277,0.351,0.313,0.233,0.192,0.199,0.231,0.176
EMC-BAC-2,0.447,0.618,0.444,0.451,0.418,0.809,0.895,0.819,0.74,0.893,,0.979,0.967,0.933,1.05,1.21,1.11,0.981,0.939
NCI-H1993,0.585,0.939,0.551,0.54,0.497,0.5,0.583,0.564,0.665,0.633,0.672,0.622,0.62,0.572,0.812,0.841,0.811,0.74,0.646
NCI-H522,0.965,1.02,1.04,0.911,0.878,0.742,0.711,0.769,0.832,0.739,0.772,0.674,0.628,0.671,0.802,0.871,0.869,0.898,0.772
NCI-H596,0.532,0.545,0.544,0.44,0.488,0.818,0.751,0.785,0.904,1.02,1.79,1.09,0.898,0.891,0.862,1.09,1.21,1.18,0.986
LK-2,0.168,0.245,0.236,0.325,0.196,0.756,1.04,0.817,0.718,0.178,0.228,0.236,0.343,0.314,0.309,0.522,0.277,0.517,0.274
NCI-H650,0.944,1.05,0.972,0.979,0.862,0.853,0.908,0.909,0.874,0.297,0.333,0.307,0.312,0.315,0.911,1.04,1.17,1.02,0.817
NCI-H322M,0.561,0.574,0.657,0.576,0.559,0.431,0.539,0.611,0.564,0.679,0.667,0.747,0.69,0.731,0.599,0.6,0.522,0.639,0.64
HCC-78,0.79,0.946,0.903,0.959,0.883,,0.782,0.768,0.601,0.75,0.82,0.655,0.808,0.642,0.682,0.744,0.638,0.502,0.551
NCI-H1395,,0.841,0.776,0.812,0.894,,0.957,1.08,1.2,,0.801,0.703,0.702,0.745,,0.397,0.395,0.353,0.419
NCI-H1648,,0.682,0.732,0.813,0.747,,0.512,0.489,0.519,,0.537,0.493,0.478,0.458,,0.676,0.734,0.689,0.608
LXF-289,0.818,0.871,0.909,0.926,0.89,0.675,0.638,0.688,0.629,0.428,0.393,0.393,0.364,0.365,1.06,1.09,1.15,1.2,0.925
NCI-H1975,0.312,0.288,0.302,0.307,0.295,0.374,0.368,0.33,0.326,0.384,0.4,0.41,0.403,0.426,0.665,0.746,0.606,0.736,0.633
NCI-H2347,0.367,0.429,0.403,0.444,0.406,0.298,0.304,0.276,0.459,0.629,0.605,0.578,0.675,0.566,0.692,0.79,0.758,0.694,0.739
